Laboratory results taken from patent publication US3941776A, “Resolution/racemization of aminolactam compounds” (Allied Chemical Corporation, priority 1974, dated 1976).

How the values were obtained:
Assay type in all cases: physicochemical
[1] = Racemization of L-ACL with NiCl2 and base from ion exchange resin (Example 4)
Experimental: a. A 20 ml ethanol solution containing 8 mmol (D,L-ACL)3 NiCl2 and 8 mmol D,L-ACL was passed through a strongly basic [quaternary ammonium hydroxide type (ANGA-542*)] ion exchange column in about 1 hour. The complex solution was followed by 15 ml ethanol and the combined eluent brought to 50 ml in a volumetric flask.
A reaction solution was prepared from 0.518g (2 mmol) of 50% L-ACL (88% optically pure) in ethanol, 1.13g (4.4 mmol) 50% D,L-ACL in ethanol and 2.48 ml 0.645 M in NiCl2.H2 O in ethanol. This was brought to reflux and 2.5 ml of the solution described above was added. The final quantities thus are total ACL 8 mmol, Ni^+^2, 2 mmol, ^-OH (free or bound to Ni^+^2), 0.3 mmol and Cl^-. 3.7 Mmol, in a total volume of 6.7 ml.
b. A 10 ml sample of 0.90 M NiCl2. H2 O in ethanol, was passed through a weakly basic ion exchange resin (IR-45, supplied by Rohm and Haas Company). The eluent had pH 5.5 (measured with a glass electrode in ethanol; the pH of untreated NiCl2 solution was about 3.7). A 1 ml aliquot of the eluent, containing 0.15 m atoms of Ni^+^+, was mixed with 78 mg (0.60 mmols) of L-ACL in 1 ml methanol. The mixture was heated in a sealed vial at 80°C. for 30 minutes.

[2] = Racemization of L-ACL in ACL/NiCl2 solution with sodium methoxide (Example 1, Table 1); conditions: 0.20 M NiCl2
Experimental: A sample of 0.702g. […] The molar ratio of ACL to NiCl2 in this solution is 3.5. […] Samples of 2.0 ml each of the solution were sealed and placed in a 60°C. (50° and 40°) bath. At different time intervals the samples were taken from the bath to determine the extent of racemization of L-ACL. To this end each sample was quenched and adjusted to 5.0 ml with 1N.HCl. […] The latter correlation is indicative of the importance of rendering Ni^+^+ coordinately saturated. It should be noted that even at temperatures as low as 40°C. suitable reaction rates are obtained and, in general, a temperature range of about 40° to about 95°C. may be used.

[3] = Racemization of L-ACL.HCl/L-ACL with catalysts (Examples 13-42, Table IV); conditions: 15 minutes at 70°C, Cu^II (5-nitrosalicylaldehyde)2, H2O/dimethylformamide 20/80
Experimental: A solution containing 0.160g (1.25 mmol) L-ACL, 0.206g (1.25 mmol) L-ACL.HCl and […] of Cu^II (5-nitrosalicylaldehyde)2 in 20/80 (v/v) H2 O/dimethylformamide (10 ml overall volume) was heated for 15 minutes at 70°C.
Following the procedure of Example 13, racemization of L-ACL.HCl was conducted in the presence of various catalysts and under various conditions of temperature and concentration; the data is summarized in Table IV.

Row | SMILES | extent of racemization ([1]; 80°C, 30 minutes, NiCl2 eluent from IR-45 resin, methanol) | t1/2 of racemization ([1]; ethanol, reflux (~80°C), NiCl2, base from ANGA-542 resin) | Racemization Rate t1/2 ([2]; ACL/NiCl2 mole ratio 3.5, Ethanol, 60°C) | Racemization Rate t1/2 ([2]; ACL/NiCl2 mole ratio 3.5, Methanol, 40°C) | Racemization Rate t1/2 ([2]; ACL/NiCl2 mole ratio 3.5, Methanol, 50°C) | Racemization Rate t1/2 ([2]; ACL/NiCl2 mole ratio 4, Ethanol, 60°C) | Racemization Rate t1/2 ([2]; ACL/NiCl2 mole ratio 4, Methanol, 40°C) | Racemization Rate t1/2 ([2]; ACL/NiCl2 mole ratio 4, Methanol, 50°C) | Racemization Rate t1/2 ([2]; ACL/NiCl2 mole ratio 5, Ethanol, 60°C) | Racemization Rate t1/2 ([2]; ACL/NiCl2 mole ratio 5, Methanol, 40°C) | Racemization Rate t1/2 ([2]; ACL/NiCl2 mole ratio 5, Methanol, 50°C) | Racemization Rate t1/2 ([2]; ACL/NiCl2 mole ratio 6, Ethanol, 60°C) | Racemization Rate t1/2 ([2]; ACL/NiCl2 mole ratio 6, Methanol, 40°C) | Racemization Rate t1/2 ([2]; ACL/NiCl2 mole ratio 6, Methanol, 50°C) | extent of racemization [3]
1 | N[C@H]1CCCCNC1=O [L-ACL, L-α-amino-ε-caprolactam] | completely racemized | 0.175 h | 1.17 h | 16.73 h | 5.67 h | 0.717 h | 12.8 h | 4.33 h | 0.433 h | 9.72 h | 2.7 h | 0.367 h | 10.2 h | 2.83 h | –
2 | Cl.N[C@H]1CCCCNC1=O [L-ACL.HCl, L-α-amino-ε-caprolactam hydrochloride] | – | – | – | – | – | – | – | – | – | – | – | – | – | – | complete racemization
